According to patent EP0471841A1, “SULFONAMIDE DERIVATIVE AND PHARMACEUTICAL COMPOSITION CONTAINING THE SAME” (Asahi Kasei Kogyo Kabushiki Kaisha, priority 1990, dated 1991):
Where a name gives a salt, the structure may show the parent alone.

Columns and labels:
[1] = test system: tracheal specimens excised from guinea pigs; test: Inhibitory effect on PGF2α-induced contraction of tracheal specimens excised from guinea pigs (Magnus tube); type: cell-based; details: Cavia porcellus, dose required for relaxing PGF2α-induced contraction to 50 %; PGF2α final concentration: 1 µm; compounds used as hydrochloride; 3 specimens per group; read-out: PGF2α-induced contraction ED50
Method: (§1) The bronchial smooth muscle-relaxing action of the sulfonamide derivative of the present invention was evaluated by the effect on suppression of KCl-induced contraction and PGF2α-induced contraction of bronchial specimens excised from guinea pigs.
Tracheal specimens excised from male guinea pigs weighing 350 to 500 g (Hartley strain, Kuroda Junkei Dobutsu) were contracted in substantially the same manner as in Application Example 1 except that PGF2α (final concentration: 1 µm) was used instead of KCl. After the contraction of the tracheal specimens became stable, each of the compounds (hydrochloride) of the present invention was dissolved in distilled water or physiological saline, and the compound solution was cumulatively added into the Magnus tube in the same manner as in Application Example 1. The relaxing effect of each of the compounds of the present invention on the contracted specimens was evaluated and a dose-response curve was obtained. The dose required for relaxing PGF2α-induced contraction to 50 %, i.e., ED₅₀ was calculated form the dose-response curve. Of compounds 3, 4, 30, 31, 36, 38, 48, 54 and 55, which were imdividually used herein, compounds other than acid addition salts were used in the form of a hydrochloride which was obtained in the same manner as described in Example 61. For comparison, the same procedure as described above was repeated except that aminophylline, comparative compound (1) and comparative compound (2) were individually used instead of the compound of the present invention, to obtain an ED₅₀. The number of specimens in each group was 3.

[2] = test system: tracheal specimens excised from guinea pigs; test: Inhibitory effect on KCl-induced contraction of tracheal specimens excised from guinea pigs (Magnus tube); type: cell-based; details: Cavia porcellus; dose required for relaxing KCl-induced contraction to 50 %; final KCl concentration: 20 mM; 37 °C; compounds other than acid addition salts used as hydrochloride; 3 specimens per group; read-out: ED₅₀ Effect on KCl-induced contraction
Method: as §1
According to a method in which tracheal specimens excised from guinea pigs were used (Takagi and Ozawa, "Yakubutsugaku Jikken (Experiments in Pharmacology)", pp.100-102, 1960, published by Nanzando Japan; and Fujiwara and Shibata, "Yakurigaku Kiso Jikenho (Methods of Fundamental Experiments in Pharmacology)" pp.131-134, 1982, published by Kyourin, Japan), relaxing effect of sulfonamide derivatives of the present invention on bronchial smooth muscle was examined. Of compounds (1) to (69) shown herein, compounds other than acid addition salts were individually used in the form of a hydrochloride which was obtained by the same method as described in Example 61.
From male guinea pigs weighing 350 to 500 g (Hartley strain, Kuroda Junkei Dobutsu), tracheas were excised and each of the excised tracheal specimens was hung in 20 ml of a Magnus tube filled with Krebs-Henseleit solution under isotonic conditions and the solution temperature was kept at 37 °C. An aqueous KCl solution was dropwise added into the Magnus tube (final KCl concentration: 20 mM) to contract the tracheal specimen. After the KCl-induced contraction became stable, each of the compounds of the present invention was dissolved in distilled water or physiological saline, and the compound solution was cumulatively added into the Magnus tube. The relaxing effect of each of the compounds of the present invention on contracted tracheal specimens was evaluated and a dose-response curve was obtained.
A dose required for relaxing KCl-induced contraction to 50 %, i.e., ED₅₀ was calculated from the dose-response curve. For comparison, the same method as described above was repeated except that aminophylline was used, to thereby determine an ED₅₀. The number of tracheal specimens in each group was 3.

## O=S(=O)(NCCN1CCCN(Cc2ccc3c(c2)OCO3)CC1)c1ccc(Cl)c2ncccc12 [(38), 1-(8-chloro-5-quinolinesulfonylaminoethyl)-4-(3,4-methylenedioxybenzyl)homopiperazine]
[1]
  EC50: 74 µM
[2]
  EC50: 26 µM

## O=S(=O)(NCCN1CCCN(Cc2ccc3c(c2)OCO3)CC1)c1cccc2cnccc12 [(31), 1-(5-isoquinolinesulfonylaminoethyl)-4-(3,4-methylenedioxybenzyl)homopiperazine]
[1]
  EC50: 31 µM
[2]
  EC50: 13 µM

## CCOc1ccc(S(=O)(=O)NCCN2CCN(Cc3ccc4c(c3)OCO4)CC2)c2cccnc12 [(49), 1-(8-ethoxy-5-quinolinesulfonylaminoethyl)-4-(3,4-methylenedioxybenzyl)piperazine]
[2]
  EC50: 46 µM

## COc1ccc(CNCCNS(=O)(=O)c2ccc(Cl)c3ncccc23)cc1OC [(12), N-[2-(3,4-dimethoxybenzylamino)ethyl]-8-chloro-5-quinolinesulfonamide]
[2]
  EC50: 160 µM

## O=S(=O)(NCCN1CCN(Cc2ccc3c(c2)OCO3)CC1)c1cccc2cnccc12 [(30), 1-(5-isoquinolinesulfonylaminoethyl)-4-(3,4-methylenedioxybenzyl)piperazine]
[1]
  EC50: 43 µM
[2]
  EC50: 16 µM

## O=S(=O)(NCCN1CCNCC1)c1cccc2cnccc12 [(28), 1-(5-isoquinolinesulfonylaminoethyl)piperazine]
[2]
  EC50: 24 µM

## CCOc1ccc(S(=O)(=O)NCCN2CCN(Cc3ccc(Cl)cc3)CC2)c2cccnc12 [(51), 1-(8-ethoxy-5-quinolinesulfonylaminoethyl)-4-(4-chlorobenzyl)piperazine]
[2]
  EC50: 85 µM

## O=S(=O)(NCCNCCc1ccc2c(c1)OCO2)c1cccc2c(O)nccc12 [(2), N-[2-(3,4-methylenedioxyphenethylamino)ethyl]-1-hydroxy-5-isoquinolinesulfonamide hydrochloride]
[2]
  EC50: 15 µM

## CCOc1ccc(S(=O)(=O)NCCNCCc2ccc3c(c2)OCO3)c2cccnc12 [(20), N-[2-(3,4-methylenedioxyphenethylamino)ethyl]-8-ethoxy-5-quinolinesulfonamide]
[2]
  EC50: 38 µM

## CCOc1ccc(S(=O)(=O)NCCN2CCN(CCc3ccc(OC)c(OC)c3)CC2)c2cccnc12 [(53), 1-(8-ethoxy-5-quinolinesulfonylaminoethyl)-4-(3,4-dimethoxyphenethyl)piperazine]
[2]
  EC50: 120 µM

## O=S(=O)(NCCN1CCCNCC1)c1ccc(Cl)c2ncccc12 [(36), 1-(8-chloro-5-quinolinesulfonylaminoethyl)homopiperazine]
[1]
  EC50: 91 µM
[2]
  EC50: 43 µM
